Where “and” joins values, the source holds several entries; their conditions need not be identical. Equal values may be shown once. Read-outs that look alike come from different tables or passages of the source.
Experiments:
P. berghei liver stages = assay: Plasmodium berghei liver stage growth inhibition assay (luminescence, in Huh7 cells); conditions: for P. berghei liver stage growth, dose-response data points (Figure 3A): replicate data points; for IC50: Plasmodium berghei, Huh-7, 48 h, read-out: IC50, P. berghei liver stage growth inhibition
Procedure: Growth inhibition or cell viability were assessed by incubation with a serial dilution of test compounds, solvent controls (DMSO, ethanol, ethyl acetate), or culture media alone in 96-well plates, with detection of fluorescence, luminescence, or absorbance in microplate readers after 24–96 h unless otherwise specified.
Huh7 cells were seeded at a density of 10,000 cells per well of a 96-well plate, or 20,000 cells per collagen-coated coverslip. After 24 h, test compounds were added the wells were inoculated with P. berghei liver stage sporozoites dissected from infected A. stephensi salivary glands with 5000–10,000 sporozoites per well or 10,000–20,000 sporozoites per coverslip. Uninfected wells served as a control for background luminescence. Luminescence signal was measured 48 h post-invasion by addition of 1:1 ONE-Glo^TM substrate (Promega) with a luminescence microplate reader. Coverslips were fixed, stained, and imaged, with all parasites on each coverslip imaged and delineated as described (Petersen et al, [2017]) using Fiji ImageJ (Schindelin et al, [2012]). Data are presented as a percentage of the size or parasite number of the solvent control to normalize for differences between experiments.
Growth inhibition data were normalised by subtracting background fluorescence, luminescence, absorbance, or percentage of cells from a no-growth or no-viability control (high drug concentration, no-parasite control, or time = 0 measurement as specified), and expressed as a percentage of the growth or cell percentage in the negative control (culture media alone or solvent control) at the indicated timepoint (or to the highest measurement reached during the assay for Fig. EV3).
Plasmodium berghei ANKA Bergreen (22) or GFP-Luc (RMgm-29) (23), respectively
expressing green fluorescent protein (GFP) or a GFP-Luciferase fusion protein, were
maintained under routine conditions in SWR/J Mus musculus mice and Anopheles stephensi
Growth inhibition of P. berghei liver-stages was investigated after infection of human
hepatoma cells (Huh7) and subsequent growth for 48 hours at 37° C, 5% CO2 and 80%
humidity. The day prior to infection, 10,000 Huh7 cells were seeded in dark-sided 96-well
microplates (Greiner Bio One). On the day of infection, compounds or solvent controls
(DMSO) were serially diluted in culture media and 5,000 – 10,000 Bergreen or GFP-Luc
sporozoites were added per well following dissection from infected A. stephensi salivary
glands. Uninfected wells served as control for background luminescence. To promote invasion,
the plates were centrifuged at 1,550 g for 5 minutes. After 60 minutes, the media was
completely replaced with fresh, prewarmed media with the matching drug concentrations.
Media was partially replaced with new drug dilutions over the following two days. 48 hours
post-infection, luminescence signal was measured by addition of 1:1 ONE-GloTM substrate
(Promega) to the wells, followed by detection at 300 – 700 nm using a Synergy HTX plate

[1] = system: P. falciparum stage V gametocytes; assay: P. falciparum gametocyte viability assay (MitoTracker, flow cytometry), stage V; assay type: cell-based, Plasmodium falciparum; conditions: 48 h; for IC50: read-out: IC50, P. falciparum gametocyte stage V inhibition
Procedure: Gametocyte assays commenced seven days (stage III–IV) or ten days (stage V) post-invasion. […]
Plasmodium falciparum Gametocyte Viability Assays:
Asexual P. falciparum parasites were induced to form gametocytes as described (21).
Synchronized trophozoite-stage parasites at 2% parasitaemia were incubated overnight and […]
haematocrit maintained at 4%. On the subsequent day (designated as day 0) of gametocytogenesis, the culture containing early ring-stage parasites was first purified by sorbitol synchronisation to remove asynchronous trophozoites, and passed through a magnetic field in a sterile MACS® column in a SuperMACSTM II magnet to remove remaining late-stage parasites or later-stage gametocytes (negative selection). The culture medium was supplemented with 50 mM N-acetyl-D-glucosamine to inhibit asexual parasite proliferation, and changed daily. Sorbitol treatment was performed on Day 1, 5, and 6 to further remove asexual parasites. Gametocytes were magnetically enriched (positive selection) in a sterile column with a SuperMACSTM II magnet and eluted in culture media with 50 mM N-acetyl-D-glucosamine. These gametocytes were incubated overnight at 37 °C under microaerophilic conditions, and purity was assessed by examination under a light microscope (400× […]
Gametocyte viability was assessed as described by Ridgway et al. (21) with modifications.
Compounds or solvent controls (DMSO) were serially diluted across 96-well plates in culture media supplemented with 50 mM N-acetyl-D-glucosamine. Culture media without compound was used as a negative control. […]
control to determine background gametocyte fluorescence. Stage III-IV gametocytes (Day 7) or stage V (day 10) gametocytes were concentrated and added to the plate with 200 µL per well. The plate was incubated for 48 hours at 37 °C under humid microaerophilic conditions.
Parasites were then stained with 500 nM MitoTrackerTM Deep Red FM and 5 μg/ml Hoechst […]
cytometer as described above. […]
excluded. Live (positive) and dead (negative) gametocytes were differentiated by […]
percentage of each was calculated. […]

[2] = system: human embryonic kidney cells (HEK293); assay: Human embryonic kidney cell viability assay (MTT); assay type: cell-based; conditions: Homo sapiens, read-out: IC50, human embryonic kidney cell inhibition (viability)
How it was run: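 HEK293 cells, 5,000 per well, exposed to serially diluted compound for 96 hours; 10 µg/mL cycloheximide as background control. Viability by MTT (0.45 mg/mL, 2 h), SDS solubilisation, absorbance at 570 nm.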

COc1cc(NC(C)CCCNC(=O)CCC(=O)OC(C)C)c2ncccc2c1 (stereo not drawn) [PQ-link]
P. berghei liver stage growth, dose-response data points (Figure 3A) (P. berghei liver stages; 0.015241580 uM, listed as BC9B): 92.27 and 99.03 and 108.7 and 82.7 and 111.9 and 105.4 and 99.3 and 85.25 and 115.4
P. berghei liver stage growth, dose-response data points (Figure 3A) (P. berghei liver stages; 0.045724740 uM, listed as BC9B): 97.1 and 81.64 and 78.74 and 103.7 and 110.1 and 105.2 and 93.19 and 87.52 and 92.15
P. berghei liver stage growth, dose-response data points (Figure 3A) (P. berghei liver stages; 0.137174210 uM, listed as BC9B): 100 and 94.2 and 80.68 and 93.41 and 113.2 and 98.29 and 109.9 and 94.24 and 87.26
Figure 3E dose-response value (replicates) (P. berghei liver stages; 0.238281250 uM, listed as BC9B): 98.59
P. berghei liver stage growth, dose-response data points (Figure 3A) (P. berghei liver stages; 0.411522630 uM, listed as BC9B): 112.6 and 99.03 and 80.68 and 102.2 and 100.8 and 100.3 and 103.8 and 90.84 and 80.37
Figure 3E dose-response value (replicates) (P. berghei liver stages; 0.476562500 uM, listed as BC9B): 90.54 and 104.6 and 95.37 and 97.54 and 101.7 and 100.2 and 97.21 and 100.9 and 86.29 and 94.55 and 90.62
P. berghei liver stage growth, dose-response data points (Figure 3A) (P. berghei liver stages; 1.234567900 uM, listed as BC9B): 102.9 and 94.2 and 112.6 and 111.7 and 103.5 and 88.53 and 119.6 and 97.91 and 82.29
Figure 3E dose-response value (replicates) (P. berghei liver stages; 1.906250000 uM, listed as BC9B): 91.51 and 91.73 and 86.54 and 84.53 and 94.62 and 101.5 and 100.5 and 102.9 and 93.23 and 96 and 85.81
P. berghei liver stage growth, dose-response data points (Figure 3A) (P. berghei liver stages; 3.703703700 uM, listed as BC9B): 97.1 and 64.25 and 91.3 and 55.79 and 60.08 and 47.34 and 73.56 and 51.31 and 52.36
Figure 3E dose-response value (replicates) (P. berghei liver stages; 3.812500000 uM, listed as BC9B): 95.8 and 93.79 and 78.58 and 83.98 and 89.72 and 104 and 93.76 and 101.5 and 80.15 and 95.42 and 85.86
Figure 3E dose-response value (replicates) (P. berghei liver stages; 7.625000000 uM, listed as BC9B): 98.29 and 86.67 and 78.83 and 80.78 and 88.54 and 106.8 and 100.5 and 90.89 and 82.41 and 82.35 and 77.49
P. berghei liver stage growth, dose-response data points (Figure 3A) (P. berghei liver stages; 11.111111100 uM, listed as BC9B): 24.64 and 16.91 and 28.5 and 18.53 and 18.77 and 20.08 and 31.94 and 26.35 and 21.2
Figure 3E dose-response value (replicates) (P. berghei liver stages; 15.250000000 uM, listed as BC9B): 60.3 and 56.28 and 80.98 and 77.04 and 83.07 and 85.06 and 90.81 and 88.28 and 61.89 and 72.05 and 69.51
Figure 3E dose-response value (replicates) (P. berghei liver stages; 30.500000000 uM, listed as BC9B): 25.91 and 29.38 and 68.25 and 66.32 and 65.97 and 65.87 and 62.35 and 59.29 and 31.73 and 40.4 and 41.06
P. berghei liver stage growth, dose-response data points (Figure 3A) (P. berghei liver stages; 33.333333300 uM, listed as BC9B): 3.382 (2×) and 4.348 and 16.15 and 16.87 and 15.2 and 10.82 and 11.34 and 9.511
Figure 3E dose-response value (replicates) (P. berghei liver stages; 61.000000000 uM, listed as BC9B): 6.18 and 4.905 and 12.31 and 10.74 and 14.16 and 15.86 and 12.88 and 14.9 and 2.822 and 2.591 and 2.429
P. berghei liver stage growth, dose-response data points (Figure 3A) (P. berghei liver stages; 100.000000000 uM, listed as BC9B): -1.449 and -0.4831 and -2.415 and 1.984 and 3.77 and 1.865 and 3.403 and 2.705 and 2.007
IC50 (P. berghei liver stages): 5.7 µM
Gametocyte stage V viability, percentage of control ([1]; 50.000000000 uM, replicate values, source data Fig. 2D, listed as BC9B): 66.98% and 63.41% and 52.55% and 74.37% and 69.92% and 70.17%
Gametocyte stage V viability, percentage of control ([1]; 100.000000000 uM, replicate values, source data Fig. 2D, listed as BC9B): 11.39% (2×) and 9.662% and 17.36% and 16.33% and 21.17% and 48.62% and 50.63% and 48.77%
Gametocyte stage V viability, percentage of control ([1]; 200.000000000 uM, replicate values, source data Fig. 2D, listed as BC9B): -1.011% and -1.165% and -0.9342% and -0.2117% and -0.2822% and -0.3175% and 0.4794% and 0.8647% and 0.8741%
viability at 6.25 µM ([1]; Plasmodium falciparum, 6.250000000 uM, replicate values, source data Fig. 2D, read-out: Gametocyte stage V viability, percentage of control): 103%
viability at 12.5 µM ([1]; Plasmodium falciparum, 12.500000000 uM, replicate values, source data Fig. 2D, read-out: Gametocyte stage V viability, percentage of control): 104%
viability at 25 µM ([1]; Plasmodium falciparum, 25.000000000 uM, replicate values, source data Fig. 2D, read-out: Gametocyte stage V viability, percentage of control): 87.6%
IC50 ([1]; Plasmodium falciparum): 70.5 µM
IC50 ([2]; 96 h, HEK293): 13.3 µM

COc1cc(NC(C)CCCN)c2ncccc2c1 (stereo not drawn) [Primaquine, primaquine, reference compound]
P. berghei liver stage growth, dose-response data points (Figure 3A) (P. berghei liver stages; 0.015241580 uM): 93.67 and 95.48 and 110.9 and 122 and 82.26 and 95.7 and 96.97 and 92.94 and 110.1
P. berghei liver stage growth, dose-response data points (Figure 3A) (P. berghei liver stages; 0.045724740 uM): 108.1 and 96.38 and 105.4 and 91.89 and 98.42 and 97.49 and 70.73 and 69.42 and 92.75
P. berghei liver stage growth, dose-response data points (Figure 3A) (P. berghei liver stages; 0.137174210 uM): 105.4 and 121.7 and 113.6 and 95.08 and 83.35 and 110.5 and 75.51 and 85.25 and 113.8
Figure 3E dose-response value (replicates) (P. berghei liver stages; 0.212890630 uM): 110.2 and 105.1 and 104.6 and 108.5 and 84.79 and 105.5 and 104.2 and 95.71 and 86.14 and 93.88 and 93.04
P. berghei liver stage growth, dose-response data points (Figure 3A) (P. berghei liver stages; 0.411522630 uM): 105.4 and 115.4 (2×) and 82.34 and 95.47 and 107.6 and 82.44 and 82.72 and 115.2
Figure 3E dose-response value (replicates) (P. berghei liver stages; 0.425781250 uM): 102.3 and 92.15 and 106 and 104.8 and 98.19 and 93.53 and 98.84 and 93.27 and 90.28
Figure 3E dose-response value (replicates) (P. berghei liver stages; 0.851562500 uM): 96.31 and 95.61 and 102.1 and 104.8 and 94.91 and 106 and 91.69 and 92.32 and 88 and 100 and 90.58 and 89.08
P. berghei liver stage growth, dose-response data points (Figure 3A) (P. berghei liver stages; 1.234567900 uM): 95.48 and 107.2 and 78.84 and 85.44 and 95.31 and 57.42 and 69.42 and 85.07
Figure 3E dose-response value (replicates) (P. berghei liver stages; 1.703125000 uM): 88.27 and 98.56 and 102.4 and 105.9 and 83.84 and 86.74 and 92.09 and 88.62
Figure 3E dose-response value (replicates) (P. berghei liver stages; 3.406250000 uM): 97.54 and 95.04 and 93.86 and 98.31 and 97.98 and 92.53 and 88.24 and 88.2 and 80.51 and 79.64 and 66.71 and 72.77
P. berghei liver stage growth, dose-response data points (Figure 3A) (P. berghei liver stages; 3.703703700 uM): 52.94 and 55.66 and 62.9 and 27.87 and 29.81 and 24.61 and 21.71 and 31.37 and 31.18
Figure 3E dose-response value (replicates) (P. berghei liver stages; 6.812500000 uM): 52.26 and 84.6 and 91.44 and 91.35 and 88.74 and 72.33 and 82.87 and 73.41 and 70.7 and 48.65 and 46.53 and 51.73
P. berghei liver stage growth, dose-response data points (Figure 3A) (P. berghei liver stages; 11.111111100 uM): 2.262 and -2.262 (2×) and 1.062 and 1.606 and 2.072 and 3.062 and 2.968 and 4.186
Figure 3E dose-response value (replicates) (P. berghei liver stages; 13.625000000 uM): 24.3 and 46.65 and 52.62 and 55.32 and 16.73 and 22.67 and 37.29 and 44.07 and 37.02 and 20.99 and 23.94 and 27.39
Figure 3E dose-response value (replicates) (P. berghei liver stages; 27.250000000 uM): 0.8156 and 1.015 and 0.9272 and 0.814 and 1.004 and 2.12 and 0.3528 and 0.5411 and 2.525 and 0.8793 and 0.07968 and 0.8298
P. berghei liver stage growth, dose-response data points (Figure 3A) (P. berghei liver stages; 33.333333300 uM): -1.357 (3×) and 0.4403 and 0.2849 and 0.3626 and 1.093 and 1.749 and 0.9997
P. berghei liver stage growth, dose-response data points (Figure 3A) (P. berghei liver stages; 100.000000000 uM): -3.167 and -0.4525 and 0.4525 and -0.0259 and 0.0518 (2×) and -0.03124 (2×) and 0.5311
Figure 3E dose-response value (replicates) (P. berghei liver stages; 109.000000000 uM): 3.02 and 0.4007 and 0.2308 and 0.4951 and 3.634 and 2.894 and 0.4747 and 1.134 and 1.25 and 3.638 and 3.687 and 3.498
IC50 (P. berghei liver stages): 2.9 µM
Gametocyte stage V viability, percentage of control ([1]; 1.562500000 uM, replicate values, source data Fig. 2D, 1.5625 µM): 97.48% and 95.25% and 88.04%
IC50 ([1]; Plasmodium falciparum): 14.8 µM
IC50 ([2]; HEK293, 96 h): 10.6 µM

— article PMC11251039, “Harnessing cholesterol uptake of malaria parasites for therapeutic applications” (EMBO Molecular Medicine, 2024)
